Values after ≈ are worked out from the molar mass of the structure shown. Where a SMILES comes first, the peptide text is derived from it. [ ]: non-standard residue; d: D form. N(tridecyl)Gly = CCCCCCCCCCCCCNCC(=O)O; Gly(N-2-aminoethyl) = NCCNCC(=O)O; Gly(N-cHex) = O=C(O)CNC1CCCCC1; Nleu = CC(C)CNCC(=O)O; Nlys = NCCCCNCC(=O)O
How the values were obtained:
[1] = Percent acetonitrile at elution during RP-HPLC purification (hydrophobicity); assay type: physicochemical; details: percent acetonitrile at the time of elution from HPLC
Source text: All RMG8-8 derivatives were synthesized via the solid-phase submonomer synthesis method on polystyrene Rink Amide resin (Zuckermann et al. Journal of the American Chemical Society 114, 10646-10647 (1992)). The amines used during synthesis and the peptoid shorthand notations for each monomer are provided in Table 7 and Table 8, respectively. Compounds were purified to greater than 95% by RP-HPLC and compound identity was confirmed by ESI-TOF MS (Table 9). The calculated distribution coefficient at pH 7.4 (c Log D7.4) (via Chemaxon. MarvinSketch 19.17.0, 2019) and the percent acetonitrile at the time of elution during HPLC purification were recorded and serve as measures of hydrophobicity (Table 10). Higher values for c Log D7.4 and percent acetonitrile are indicators of increased compound hydrophobicity. With antimicrobial peptoids, hydrophobicity is directly related to both antimicrobial activity and cytotoxicity (Andreev et al. Biochimica et biophysica acta. Biomembranes 1860 6, 1414-1423 (2018); Bolt et al. Med chem comm 8, 886-896 (2017); Frederiksen et al. Molecules 24, (2019)). The ideal balance of these parameters generally must be determined experimentally. To measure antifungal activity, the minimum inhibitory concentration (MIC), defined as the concentration of compound required to inhibit 90% of fungal growth, was determined against C. neoformans using the broth microdilution method. Mammalian cytotoxicity was evaluated through a cell metabolic activity assay with HepG2 liver carcinoma cells, and select, potentially promising compounds were tested for unwanted hemolytic activity against human red blood cells.
Peptoids were purified via Reversed-Phase High-Performance Liquid Chromatography (RP-HPLC) using a Varian Prepstar SD-1. A gradient of 0-100% water to acetonitrile containing 0.05% TFA made up the mobile phase, and a Supelco Ascentis C18 column (5 μm; 25 cm×21.2 mm; Sigma-Aldrich 581347-U) was used as the stationary phase. Peaks in the chromatogram above 0.1 AU were collected and analyzed via mass spectrometry. The peak product with the desired peptoid was dried down in vacuo and lyophilized overnight. Peptoids were then reconstituted in sterile […] deionized water to create compound stocks of 20 mg/mL.

A. baumannii = assay type: cell-based, Acinetobacter baumannii; details: 24 h
Procedure: The minimum inhibitory concentration (MIC) of peptoids against the ESKAPE bacteria (Enterococcus faecium ATCC 6569; Staphylococcus aureus ATCC 29213; Klebsiella pneumoniae ATCC 13883; Acinetobacter 55aumannii ATCC 19606; Pseudomonas aeruginosa ATCC 25619; Enterococcus faecalis ATCC 29212; and Escherichia coli ATCC 25922) was determined following CLSI guidelines (CLSI. Methods for Dilution Antimicrobial Susceptibility Tests for Bacteria That Grow Aerobically, 11th Edition. (Clinical and Laboratory Standards Institute, 2018). The MIC against Mycobacterium smegmatis was also determined following CLSI guidelines (Woods et al., Susceptibility Testing of Mycobacteria, Nocardiae, and Other Aerobic Actinomycetes, 2nd edition. (2011)). Colonies picked from streaked tryptic soy agar plates were added to tryptic soy broth (TSB) to achieve a turbidity of OD600=0.08-0.15. Inoculant was diluted 1:200 into cation adjust Mueller Hinton Broth (CAVHB) and 90 μL was plated into each well of a 96 well black-wall plate. […] Following incubation for the ESKAPE bacteria, PrestoBlue (10 μL) was added to each well and incubated at 37° C. for one hour before measuring fluorescence on a SpectraMax M5 plate reader (Ex. 555 nm; Em. 585 nm). Following incubation for M. smegmatis, wells were scored following CLSI guidelines to determine MIC. […]

C. albicans biofilm = assay type: cell-based, Candida albicans; details: 24 h
Procedure: Plates were incubated overnight at 37° C. Media was gently removed and gently washed three times with PBS. RPMI-MOPS (198 μL) were added to each well. 2-fold serial dilutions of 100× peptoid solutions were prepared in water and 2 μL of peptoid were added to each well in triplicate then incubated at 37° C. for 24 hours. PrestoBlue (20 μL) was added to each well and incubated at 37° C. for one hour before measuring fluorescence on a SpectraMax M5 plate reader (Ex. 555 nm; Em. 585 nm).

C. neoformans = test: microbe, parasite or virus in culture; assay type: cell-based, Cryptococcus neoformans; details: 72 h
Procedure: Cell solution was diluted into RPMI-MOPS (1:100) followed by another dilution into RPMI-MOPS (1:20). […] Plates were incubated for 72 hours at 35° C. MIC was determined as the lowest concentration of individual compound or combined compounds inhibiting pathogen growth. Fractional inhibitory concentration index (FICi) was determine using the following equation: FICi values were interpreted as follows: FICi<0.5 synergistic; 0.5≤FICi≤4 indifferent; FICi>4 antagonist (Johnson et al., Antimicrob. Agents Chemother. 48, 693-715 (2004)).

[2] = test system: Staphylococcus aureus ATCC 29213; assay type: cell-based; details: ATCC 29213, 24 h
Procedure: (§1) The minimum inhibitory concentration (MIC) of peptoids against the ESKAPE bacteria (Enterococcus faecium ATCC 6569; Staphylococcus aureus ATCC 29213; Klebsiella pneumoniae ATCC 13883; Acinetobacter 55aumannii ATCC 19606; Pseudomonas aeruginosa ATCC 25619; Enterococcus faecalis ATCC 29212; and Escherichia coli ATCC 25922) was determined following CLSI guidelines (CLSI. Methods for Dilution Antimicrobial Susceptibility Tests for Bacteria That Grow Aerobically, 11th Edition. (Clinical and Laboratory Standards Institute, 2018). The MIC against Mycobacterium smegmatis was also determined following CLSI guidelines (Woods et al., Susceptibility Testing of Mycobacteria, Nocardiae, and Other Aerobic Actinomycetes, 2nd edition. (2011)). Colonies picked from streaked tryptic soy agar plates were added to tryptic soy broth (TSB) to achieve a turbidity of OD600=0.08-0.15. Inoculant was diluted 1:200 into cation adjust Mueller Hinton Broth (CAVHB) and 90 μL was plated into each well of a 96 well black-wall plate. 2-fold serial dilutions of 10× peptoid (10 μL) were added to each well in triplicate and incubated at 37° C. for 24 hours for the ESKAPE bacteria and 72 hours for M. smegmatis. Tetracycline (20 μg/mL) was used as a positive control with DI water was used as a vehicle control. Following incubation for the ESKAPE bacteria, PrestoBlue (10 μL) was added to each well and incubated at 37° C. for one hour before measuring fluorescence on a SpectraMax M5 plate reader (Ex. 555 nm; Em. 585 nm). Following incubation for M. smegmatis, wells were scored following CLSI guidelines to determine MIC. This assay was repeated three times on separate days.

Mycobacterium smegmatis = assay type: cell-based; details: 72 h
Procedure: as §1

[3] = test system: Pseudomonas aeruginosa ATCC 25619; assay type: cell-based; details: ATCC 25619, 24 h
Procedure: as §1

[4] = test system: Enterococcus faecium ATCC 6569; assay type: cell-based; details: ATCC 6569, 24 h
Procedure: as §1

[5] = test system: Enterococcus faecalis ATCC 29212; assay type: cell-based; details: ATCC 29212, 24 h
Procedure: as §1

SMILES | % ACN [1] [%] | MIC A. baumannii (A. baumannii) [µg/mL] | MIC C. albicans biofilm (MBIC) (C. albicans biofilm) [µg/mL] | MIC (compound alone) (C. neoformans) [µg/mL] | MIC S. aureus [2] [µg/mL] | MIC M. smegmatis (Mycobacterium smegmatis) [µg/mL] | MIC P. aeruginosa [3] [µg/mL] | MIC E. faecium [4] [µg/mL] | MIC E. faecalis [5] [µg/mL] | proteolytic degradation / protein binding in human serum
CCCCCCCCCCCCCNCC(=O)N(CC(=O)N(CCCCN)CC(=O)N(CCN)CC(=O)N(CC(N)=O)CC(C)C)CC(C)C [Compound 9] (H-[N(tridecyl)Gly][Nleu][Nlys][Gly(N-2-aminoethyl)][Nleu]-NH2) | 68.1 |  |  |  |  |  |  |  |  | 
CCCCCCCCCCCCCNCC(=O)N(CC(=O)N(CCCCN)CC(=O)N(CCN)CC(=O)N(CC(N)=O)C1CCCCC1)C1CCCCC1 [RMG8-8, Ntri-Ncha-Nlys-Nae-Ncha] (H-[N(tridecyl)Gly][Gly(N-cHex)][Nlys][Gly(N-2-aminoethyl)][Gly(N-cHex)]-NH2) |  | 25 (≈ 32.8 µM) | 100 (≈ 131 µM) | 1.56 | 6.25 (≈ 8.19 µM) | 3.13 to 6.25 | 100 (≈ 131 µM) | 6.25 (≈ 8.19 µM) | 6.25 (≈ 8.19 µM) | No proteolytic degradation or significant protein binding

From patent US20240352066A1, “ANTIMICROBIAL COMPOUNDS AND THE METHOD OF USE” (priority 2021, published 2024)
